Test results as given in article PMC12817919 (Journal of Virology, 2025).
Read-outs that look alike come from different tables or passages of the source.

Key:
RSV K399N = format: cell-based, respiratory syncytial virus (RSV); conditions: for Fold resistance (RSV K399N): fold change in the EC50 relative to that of wild-type RSV
RSV T400A = format: cell-based, respiratory syncytial virus (RSV); conditions: for Fold resistance (RSV T400A): fold change in the EC50 relative to that of wild-type RSV
RSV K394R = format: cell-based, respiratory syncytial virus (RSV); conditions: for Fold resistance (RSV K394R): fold change in the EC50 relative to that of wild-type RSV
wild-type RSV = assay: microbe, parasite or virus in culture; format: cell-based
RSV A2 P18 (Control) = assay: Antiviral activity against passaged virus in HEp-2 cells (FFA); format: cell-based, respiratory syncytial virus (RSV); conditions: human respiratory syncytial virus, HEp-2, MOI 0.2, FFA
RSV F protein [1] = biological target: T1, RSV F protein (Human respiratory syncytial virus A, UniProt P03420); format: cell-based; design: expressed in transfected cells; host or cells: HEK293T; conditions: HEK293T cells expressing RSV F, western blot
Target sequence in this assay (P03420 137-574): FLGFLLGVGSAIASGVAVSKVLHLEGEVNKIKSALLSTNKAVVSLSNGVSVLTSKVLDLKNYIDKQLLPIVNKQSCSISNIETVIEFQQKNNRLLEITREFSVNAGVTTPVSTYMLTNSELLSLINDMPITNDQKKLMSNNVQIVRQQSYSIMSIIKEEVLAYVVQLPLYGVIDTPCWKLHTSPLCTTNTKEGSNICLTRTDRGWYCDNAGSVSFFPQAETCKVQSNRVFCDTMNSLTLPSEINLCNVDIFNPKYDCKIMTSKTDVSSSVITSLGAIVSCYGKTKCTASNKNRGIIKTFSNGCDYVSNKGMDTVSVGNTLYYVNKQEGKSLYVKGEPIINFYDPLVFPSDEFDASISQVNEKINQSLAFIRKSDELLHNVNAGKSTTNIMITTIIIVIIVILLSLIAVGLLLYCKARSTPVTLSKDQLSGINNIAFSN
Target sequence in this assay (P03420 26-109): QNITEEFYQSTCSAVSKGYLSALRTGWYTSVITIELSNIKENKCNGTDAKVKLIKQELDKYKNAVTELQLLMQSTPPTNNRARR

RSV V127G = format: cell-based, respiratory syncytial virus (RSV)
[2] = test system: Lonafarnib escape virus populations P18 (RSV ON1); assay: Antiviral activity against passaged virus in HEp-2 cells (FFA); format: cell-based, respiratory syncytial virus (RSV); conditions: human respiratory syncytial virus, HEp-2, MOI 0.2, FFA
[3] = test system: Lonafarnib escape virus populations P18 (RSV A2); assay: as above; format: cell-based, respiratory syncytial virus (RSV); conditions: human respiratory syncytial virus, HEp-2, MOI 0.2, FFA
RSV ON1 = assay: microbe, parasite or virus in culture; format: cell-based; conditions: human respiratory syncytial virus; HEp-2 (RSV ON1, MOI = 0.2), 72 h, FFA
[4] = test system: DS-Cav1 mutants (T335I, K394R, S398L, K399N, T400A, and D401E); format: binding; conditions: D401E compared with DS-Cav1
RSV L141F = format: cell-based, respiratory syncytial virus (RSV)
RSV F protein mutants = assay: GFP-split cell-cell fusion assay mediated by transfected F or F mutants; format: cell-based, respiratory syncytial virus (RSV); conditions: 5, 1, 0.5 µM, 24 h, HEK293T GFP-split cells
Description: (§1) Cell–cell fusion assays were performed using a split-GFP system (GFP1-10 and GFP11) ([76]). Briefly, HEK293T cells stably expressing GFP1-10 were transfected with 1,000 ng of plasmids encoding either wild-type F or F mutants containing various amino acid substitutions. Alternatively, the cells were infected with RSV and treated with 0.1% DMSO or the indicated compounds at concentrations of 5, 1, and 0.5 µM. Then, the transfected or infected cells were co-cultured with HEK293T cells stably expressing GFP11 at a 1:1 ratio (8 × 10^4 cells/well) for 24 h in a 96-well plate. Images were acquired per well on an Operetta CLS High-Content Screening System (PerkinElmer).

RSV F488L = format: cell-based, respiratory syncytial virus (RSV)
RSV = conditions: oral administration; cited from earlier work
in vitro = format: cell-based; conditions: human; HEp-2 cells, 72 h, CCK8
Description: HEp-2 cells (1.3 × 10^4) were seeded in 96-well plates for 20 h. The indicated compounds in a 3-fold dilution series were added to the cells, and three wells were performed in parallel. After 72 h, the cells were incubated with DMEM containing 10% FBS and CCK8 reagent (Beyotime Biotechnology, cat#C0038) for 30 min at 37°C. The absorbance at 450 nm and 600 nm was read using the PerkinElmer EnSight reader.

RSV T400I = format: cell-based, respiratory syncytial virus (RSV)
RSV A2 [5] = assay: microbe, parasite or virus in culture; format: cell-based; conditions: human respiratory syncytial virus; HEp-2 (RSV A2, MOI = 0.2), 72 h, FFA
RSV ON1 P18 (Control) = assay: Antiviral activity against passaged virus in HEp-2 cells (FFA); format: cell-based, respiratory syncytial virus (RSV); conditions: human respiratory syncytial virus, HEp-2, MOI 0.2, FFA
RSV F protein [6] = biological target: T1, RSV F protein; format: cell-based; design: HEp-2 cells were infected with RSV (MOI = 10); endogenous in cells; host or cells: HEp-2 cells infected with RSV (viral protein made in the infected cell); conditions: HEp-2, RSV MOI 10, 1 µM, 18 h
Target sequence in this assay (P03420 137-574): as the sequence (P03420 137-574) above
Target sequence in this assay (Q96SW2 whole entry, further chain): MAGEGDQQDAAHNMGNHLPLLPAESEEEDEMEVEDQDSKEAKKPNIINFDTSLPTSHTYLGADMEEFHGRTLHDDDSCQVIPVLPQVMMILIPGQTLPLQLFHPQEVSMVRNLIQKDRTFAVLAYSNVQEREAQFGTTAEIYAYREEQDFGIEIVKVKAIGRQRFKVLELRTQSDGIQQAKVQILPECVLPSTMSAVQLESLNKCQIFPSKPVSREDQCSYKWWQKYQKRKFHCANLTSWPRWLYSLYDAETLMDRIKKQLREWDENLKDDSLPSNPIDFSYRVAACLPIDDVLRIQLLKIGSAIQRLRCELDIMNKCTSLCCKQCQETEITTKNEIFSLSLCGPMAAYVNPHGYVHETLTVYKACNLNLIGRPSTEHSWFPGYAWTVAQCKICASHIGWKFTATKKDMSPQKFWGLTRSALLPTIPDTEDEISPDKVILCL
Target sequence in this assay (P03420 26-109): as the sequence (P03420 26-109) above

RSV ON1-GFP [7] = assay: Antiviral efficacy in primary human bronchial epithelial cells (GFP intensity); format: cell-based, respiratory syncytial virus (RSV); conditions: HBECs, MOI 2, 1 µM, 72 h
Description: The inhibitory effects of compounds on RSV ON1-GFP were evaluated in HBEC. […] At 72 h post-infection, the infected cells were visualized using an EVOS M5000 Cell Imaging System (Thermo Fisher Scientific).

RSV ON1-GFP [8] = assay: Antiviral drug assay using lung airway organoids; conditions: 96 h, MOI 1
Description: In brief, HBECs were initially cultured in PneumaCult-Ex Plus Medium ([sequence] Technologies, cat#05040), then seeded at 2 × 10⁵ cells/well into anti-adherence rinsing solution ([sequence] Technologies, cat#07010)-treated AggreWell400 24-well plates ([sequence] Technologies, cat#34415). They were maintained in PneumaCult Apical-Out Airway Organoid Medium ([sequence] Technologies, cat#100-0620) for 6 days. Subsequently, the cells were transferred to similarly treated flat-bottom 24-well plates and cultured in the same medium for an additional 9 days.
The airway organoids were infected with RSV ON1-GFP at an MOI of 1 for 4 h. […] At 96 h post-infection, cell-free medium was harvested, and a TCID50 assay was performed to determine the viral titer. The organoids were fixed in parallel in 4% PFA, permeabilized with 0.5% Triton X-100 (1 h), blocked with 5% BSA (Macklin, cat#B824162; 2 h), and incubated overnight at 4°C with primary antibodies: Goat anti-Human p63/TP73L polyclonal antibody (R&D Systems, cat#AF1916), Rabbit anti-Human Mucin 5AC polyclonal antibody (Abways, cat#CY6826), and Mouse anti-acetylated tubulin monoclonal antibody (Sigma-Aldrich, cat#T7451). […] The GFP fluorescence intensity was quantified using ImageJ analysis software (RRID: SCR_003070; National Institutes of Health, NIH).

RSV A2 [9] = assay: GFP-split cell-cell fusion assay mediated by RSV infection; format: cell-based, respiratory syncytial virus (RSV); conditions: RSV A2 MOI 1; 5, 1, 0.5 µM, 24 h, HEK293T GFP-split cells
Description: as §1

[10] = Table 2 cross-resistance experiment, HEp-2, read-out: EC50 RSV K399N
[11] = Table 2 cross-resistance experiment, HEp-2, read-out: EC50 RSV T400A
[12] = Table 2 cross-resistance experiment, HEp-2, read-out: EC50 RSV K394R
[13] = human respiratory syncytial virus, wild-type RSV, Table 2 cross-resistance experiment, HEp-2, read-out: EC50 RSV

Cc1ccc2nc(N3CCS(=O)(=O)c4ccccc4C3)nc(NCC3(N)COC3)c2c1 [AK0529]
EC50 (RSV K399N; [10]): 2250 nM | Fold resistance (RSV K399N) (RSV K399N): 1,713.3 | EC50 (RSV T400A; [11]): 9850 nM | Fold resistance (RSV T400A) (RSV T400A): 7,491.3 | EC50 (RSV K394R; [12]): 6550 nM | Fold resistance (RSV K394R) (RSV K394R): 4,983.3 | EC50 (wild-type RSV; [13]): 1.3 nM

Cc1cn2nc([C@@H]3CCCCN3C(=O)c3cc(Cl)ccc3NS(C)(=O)=O)cc2nc1N1CC[C@H](N)C1 [GS-5806]
EC50 (RSV K399N; [10]): 4.4 nM | Fold resistance (RSV K399N) (RSV K399N): 38.3 | EC50 (RSV T400A; [11]): 28.8 nM | Fold resistance (RSV T400A) (RSV T400A): 250.1 | EC50 (RSV K394R; [12]): 192 nM | Fold resistance (RSV K394R) (RSV K394R): 1,673.9 | EC50 (wild-type RSV; [13]): 0.1 nM

CS(=O)(=O)CCCn1c(Cn2c(=O)n(CC(F)(F)F)c3ccncc32)cc2cc(Cl)ccc21 [JNJ-53718678]
EC50 (RSV K399N; [10]): 248 nM | Fold resistance (RSV K399N) (RSV K399N): 382.2 | EC50 (RSV T400A; [11]): 11600 nM | Fold resistance (RSV T400A) (RSV T400A): 17,920.3 | EC50 (RSV K394R; [12]): 10100 nM | Fold resistance (RSV K394R) (RSV K394R): 15,582.2 | EC50 (wild-type RSV; wild-type RSV, Table 2 cross-resistance experiment, HEp-2, read-out: EC50 RSV): 0.7 nM

NC(=O)N1CCC(CC(=O)N2CCC([C@H]3c4ncc(Br)cc4CCc4cc(Cl)cc(Br)c43)CC2)CC1 [Lonafarnib]
EC50 (RSV A2 P18 (Control); HEp-2, Lineage 1): 40 nM | EC50 (RSV A2 P18 (Control); HEp-2, Lineage 2): 50 nM | EC50 (RSV A2 P18 (Control); HEp-2, Lineage 3): 40 nM | effect on F protein levels (RSV F protein [1]): did not affect F protein levels | EC90 (RSV V127G; EC90 = 9^1/HillSlope*EC50): 177 ± 38 nM | EC50 (RSV V127G; HEp-2, MOI 0.2, 3 days, FFA): 44 ± 5 nM | EC50 ([2]; HEp-2, Lineage 1): 3360 nM | EC50 ([2]; HEp-2, Lineage 2): 4100 nM | EC50 ([2]; HEp-2, Lineage 3): 3500 nM | EC50 ([3]; HEp-2, Lineage 1): 800 nM | EC50 ([3]; HEp-2, Lineage 2): 1080 nM | EC50 ([3]; HEp-2, Lineage 3): 790 nM | EC50 (RSV ON1): 60 ± 20 nM | binding affinity for lonafarnib (SPR) [4]: significantly decreased the binding affinity | EC90 (RSV K399N; K399N, EC90 = 9^1/HillSlope*EC50): 1550 ± 277 nM | EC50 (RSV K399N; K399N, HEp-2, MOI 0.2, 3 days, FFA, read-out: EC50): 450 ± 32 nM | EC50 (RSV K399N; [10]): 406 nM | EC90 (RSV L141F; EC90 = 9^1/HillSlope*EC50): 631 ± 125 nM | EC50 (RSV L141F; HEp-2, MOI 0.2, 3 days, FFA): 79 ± 19 nM | inhibition of mutant-induced cell-cell fusion activity (RSV F protein mutants; T335I, S398L, K394R, K399I/N, T400A/I, and D401E mutants): did not or only slightly inhibit | inhibition of mutant-induced cell-cell fusion activity (RSV F protein mutants; V76A, K80N, L119I, and D392G/N mutants): significantly inhibited | EC90 (RSV F488L; EC90 = 9^1/HillSlope*EC50): 1900 ± 160 nM | EC50 (RSV F488L; HEp-2, MOI 0.2, 3 days, FFA): 700 ± 69 nM | RSV load in murine infection model (RSV): dose-dependent reduction in the RSV load | CC50 (in vitro): 17900 ± 1130 nM | EC90 (RSV T400I; EC90 = 9^1/HillSlope*EC50): 4610 ± 663 nM | EC50 (RSV T400I; HEp-2, MOI 0.2, 3 days, FFA): 1510 ± 184 nM | EC90 (RSV T400A; T400A, EC90 = 9^1/HillSlope*EC50): 4640 ± 440 nM | EC50 (RSV T400A; T400A, HEp-2, MOI 0.2, 3 days, FFA, read-out: EC50): 1520 ± 127 nM | EC50 (RSV T400A; [11]): 1120 nM | EC90 (RSV K394R; K394R, EC90 = 9^1/HillSlope*EC50): 15000 ± 7330 nM | EC50 (RSV K394R; K394R, HEp-2, MOI 0.2, 3 days, FFA, read-out: EC50): 5130 ± 1690 nM | EC50 (RSV K394R; [12]): 3840 nM | EC50 (RSV A2 [5]): 40 ± 2 nM | EC50 (wild-type RSV; human respiratory syncytial virus, 72 h, Wild-type, HEp-2, MOI 0.2, 3 days, FFA, read-out: EC50): 46 ± 10 nM | EC90 (wild-type RSV; human respiratory syncytial virus, HEp-2, Wild-type, EC90 = 9^1/HillSlope*EC50): 190 ± 120 nM | EC50 (wild-type RSV; [13]): 45.6 nM | EC50 (RSV ON1 P18 (Control); HEp-2, Lineage 1): 90 nM | EC50 (RSV ON1 P18 (Control); HEp-2, Lineage 2): 130 nM | EC50 (RSV ON1 P18 (Control); HEp-2, Lineage 3): 130 nM

NCc1ccc2c(c1)nc(CN1C(=O)C3(CC3)c3ccc(F)cc31)n2CCCC(F)(F)F [RV521]
EC50 (RSV K399N; [10]): 0.4 nM | Fold resistance (RSV K399N) (RSV K399N): 5.4 | EC50 (RSV T400A; [11]): 12.6 nM | Fold resistance (RSV T400A) (RSV T400A): 173.6 | EC50 (RSV K394R; [12]): 179 nM | Fold resistance (RSV K394R) (RSV K394R): 2,462.8 | EC50 (wild-type RSV; [13]): 0.1 nM

O=C1CCC(N2C(=O)c3cccc(NCCOCCOCCOCCC(=O)N4CCC(CC(=O)N5CCC([C@H]6c7ncc(Br)cc7CCc7cc(Cl)cc(Br)c76)CC5)CC4)c3C2=O)C(=O)N1 (stereo partly drawn) [compound 0179841, 4-((2-(2-(2-(3-(4-(2-(4-((R)−3,10-dibromo-8-chloro-6,11-dihydro-5H-benzo[5,6]cyclohepta[1,2-b]pyridin-11-yl)piperidin-1-yl)−2-oxoethyl)piperidin-1-yl)−3-oxopropoxy)ethoxy)ethoxy)ethyl)amino)−2-(2,6-dioxopiperidin-3-yl)isoindoline-1,3-dione]
effect on F protein levels (RSV F protein [1]): time- and concentration-dependent | EC50 (RSV ON1): 460 ± 30 nM | degradation of the F protein during RSV infection (RSV F protein [6]): induced significant degradation of the F protein | CC50 (in vitro): > 100000 nM | EC50 (RSV A2 [5]): 450 ± 40 nM | RSV infection level (GFP intensity) (RSV ON1-GFP [7]): significant decrease in the RSV infection level | reduction of viral titers compared with the DMSO control (RSV ON1-GFP [8]; 5 µM, TCID50 of supernatant): more than 100 fold | viral loads and protein expression in lung airway organoids (RSV ON1-GFP [8]; 5, 1, 0.5 µM): significantly reduced viral loads and protein expression in a dose-dependent manner | inhibition of RSV-induced cell-cell fusion activity (RSV A2 [9]): significantly inhibited
